Results on 19 substances are retold here after the OligoGym collection.

HELM strings list units from the 5' end as sugar, base in round brackets, then linkage (d deoxyribose, r ribose, m 2'-O-methyl, p phosphodiester). Strings are as the collection lists them, not checked against the first reports. ss, as = sense and antisense strand; [lna] = locked nucleic acid (LNA); [hna] = hexitol nucleic acid; [fl2r] = 2'-fluoro
Further: test system not given here.

For the data set the following is noted: siRNA.
The substance “RNA1{r(C)p.r(U)p.r(U)p.r(A)p.r(C)p.r(G)p.r(C)p.r(U)p.r(G)p.r(A)p.r(G)p.r(U)p.r(A)p.r(C)p.r(U)p.r(U)p.r(C)p.r(G)p.r(A)p.r(T)p.r(T)}|RNA2{r(U)p.r(C)p.r(G)p.r(A)p.r(A)p.r(G)p.r(U)p.r(A)p.r(C)p.r(U)p.r(C)p.r(A)p.r(G)p.r(C)p.r(G)p.r(U)p.[lna](A)p.r(A)p.r(G)p.r(T)p.r(T)}$$$RNA1{StrandType:ss}|RNA2{StrandType:as}$” came in with a target mRNA knockdown of 93%.

With “RNA1{r(C)p.r(U)p.r(U)p.r(A)p.r(C)p.r(G)p.r(C)p.r(U)p.r(G)p.r(A)p.r(G)p.r(U)p.r(A)p.r(C)p.r(U)p.r(U)p.r(C)p.r(G)p.r(A)p.r(T)p.r(T)}|RNA2{r(U)p.r(C)p.r(G)p.r(A)p.r(A)p.r(G)p.r(U)p.r(A)p.r(C)p.r(U)p.r(C)p.r(A)p.r(G)p.r(C)p.r(G)p.r(U)p.r(A)p.[lna](A)p.r(G)p.r(T)p.r(T)}$$$RNA1{StrandType:ss}|RNA2{StrandType:as}$”, the target mRNA knockdown amounted to 92%.

Substance “RNA1{r(C)p.r(U)p.r(U)p.r(A)p.r(C)p.r(G)p.r(C)p.r(U)p.r(G)p.r(A)p.r(G)p.r(U)p.r(A)p.r(C)p.r(U)p.r(U)p.r(C)p.r(G)p.r(A)p.r(T)p.r(T)}|RNA2{r(U)p.r(C)p.r(G)p.r(A)p.r(A)p.r(G)p.r(U)p.r(A)p.r(C)p.r(U)p.r(C)p.r(A)p.r(G)p.r(C)p.r(G)p.r(U)p.r(A)p.r(A)p.[lna](G)p.r(T)p.r(T)}$$$RNA1{StrandType:ss}|RNA2{StrandType:as}$” returned a target mRNA knockdown of 88%.

“RNA1{r(C)p.r(U)p.r(U)p.r(A)p.r(C)p.r(G)p.r(C)p.r(U)p.r(G)p.r(A)p.r(G)p.r(U)p.r(A)p.r(C)p.r(U)p.r(U)p.r(C)p.r(G)p.r(A)p.r(T)p.r(T)}|RNA2{r(U)p.r(C)p.r(G)p.r(A)p.r(A)p.r(G)p.r(U)p.r(A)p.r(C)p.r(U)p.r(C)p.r(A)p.r(G)p.r(C)p.r(G)p.r(U)p.r(A)p.r(A)p.r(G)p.[lna](T)p.[lna](T)}$$$RNA1{StrandType:ss}|RNA2{StrandType:as}$”: the target mRNA knockdown was determined as 93%.

For “RNA1{r(C)p.r(U)p.r(U)p.r(C)p.r(U)p.r(U)p.r(C)p.r(G)p.r(U)p.r(C)p.r(G)p.r(A)p.r(G)p.r(A)p.r(C)p.r(C)p.r(A)p.r(U)p.r(G)p.d(T)p.d(T)}|RNA2{r(C)p.r(A)p.r(U)p.r(G)p.r(G)p.r(U)p.r(C)p.r(U)p.r(C)p.r(G)p.r(A)p.r(C)p.r(G)p.r(A)p.r(A)p.r(G)p.r(A)p.r(A)p.r(G)p.d(T)p.d(T)}$$$RNA1{StrandType:ss}|RNA2{StrandType:as}$”, the target mRNA knockdown was 45%.

With “RNA1{r(G)p.[fl2r](A)p.r(A)p.r(A)p.[fl2r](C)p.[fl2r](U)p.r(G)p.r(G)p.[fl2r](U)p.[fl2r](A)p.[fl2r](C)p.[fl2r](U)p.[fl2r](U)p.[fl2r](U)p.[fl2r](C)p.[fl2r](C)p.[fl2r](C)p.[fl2r](C)p.[fl2r](C)p.r(T)p.r(T)}|RNA2{r(G)p.r(G)p.r(G)p.r(G)p.r(G)p.r(A)p.r(A)p.r(A)p.r(G)p.r(U)p.r(A)p.r(C)p.r(C)p.r(A)p.r(G)p.r(U)p.r(U)p.r(U)p.r(C)p.r(T)p.r(T)}$$$RNA1{StrandType:ss}|RNA2{StrandType:as}$”, the target mRNA knockdown stood at 60%.

Regarding “RNA1{r(G)p.[fl2r](C)p.r(A)p.r(G)p.[fl2r](C)p.r(A)p.[fl2r](C)p.r(G)p.r(A)p.[fl2r](C)p.[fl2r](U)p.[fl2r](U)p.[fl2r](C)p.[fl2r](U)p.[fl2r](U)p.[fl2r](C)p.r(A)p.r(A)p.r(G)p.r(T)p.r(T)}|RNA2{[fl2r](C)p.[fl2r](U)p.[fl2r](U)p.r(G)p.r(A)p.r(A)p.r(G)p.r(A)p.r(A)p.r(G)p.[fl2r](U)p.[fl2r](C)p.r(G)p.[fl2r](U)p.r(G)p.[fl2r](C)p.[fl2r](U)p.r(G)p.[fl2r](C)p.r(T)p.r(T)}$$$RNA1{StrandType:ss}|RNA2{StrandType:as}$”, the target mRNA knockdown stood at 83%.

The substance “RNA1{r(G)p.[fl2r](C)p.r(A)p.r(G)p.[fl2r](C)p.r(A)p.[fl2r](C)p.r(G)p.r(A)p.[fl2r](C)p.[fl2r](U)p.[fl2r](U)p.[fl2r](C)p.[fl2r](U)p.[fl2r](U)p.[fl2r](C)p.r(A)p.r(A)p.r(G)p.r(T)p.r(T)}|RNA2{r(C)p.r(U)p.r(U)p.r(G)p.r(A)p.r(A)p.r(G)p.r(A)p.r(A)p.r(G)p.r(U)p.r(C)p.r(G)p.r(U)p.r(G)p.r(C)p.r(U)p.r(G)p.r(C)p.r(T)p.r(T)}$$$RNA1{StrandType:ss}|RNA2{StrandType:as}$” showed a target mRNA knockdown of 92%.

As to “RNA1{r(G)p.[hna](A)p.r(C)p.r(G)p.r(U)p.r(A)p.r(A)p.[hna](A)p.r(C)p.r(G)p.r(G)p.r(C)p.r(C)p.[hna](A)p.r(C)p.r(A)p.[hna](A)p.r(G)p.r(U)p.r(U)p.r(C)}|RNA2{[fl2r](A)p.m(C)p.[fl2r](U)p.m(U)p.[fl2r](G)p.m(U)p.[fl2r](G)p.m(G)p.[fl2r](C)p.m(C)p.[fl2r](G)p.m(U)p.[fl2r](U)p.m(U)p.[fl2r](A)p.m(C)p.[fl2r](G)p.m(U)p.[fl2r](C)p.m(G)p.[fl2r](C)}$$$RNA1{StrandType:ss}|RNA2{StrandType:as}$”, the target mRNA knockdown amounted to 7.8%.

“RNA1{r(G)p.[hna](A)p.r(C)p.r(G)p.r(U)p.r(A)p.r(A)p.[hna](A)p.r(C)p.r(G)p.r(G)p.r(C)p.r(C)p.[hna](A)p.r(C)p.r(A)p.[hna](A)p.r(G)p.r(U)p.r(U)p.r(C)}|RNA2{r(A)p.m(C)p.r(U)p.r(U)p.r(G)p.r(U)p.r(G)p.r(G)p.r(C)p.r(C)p.r(G)p.r(U)p.r(U)p.r(U)p.r(A)p.r(C)p.r(G)p.r(U)p.r(C)p.r(G)p.r(C)}$$$RNA1{StrandType:ss}|RNA2{StrandType:as}$”: the target mRNA knockdown was 54.2%.

“RNA1{r(G)p.[hna](A)p.r(C)p.r(G)p.r(U)p.r(A)p.r(A)p.[hna](A)p.r(C)p.r(G)p.r(G)p.r(C)p.r(C)p.[hna](A)p.r(C)p.r(A)p.[hna](A)p.r(G)p.r(U)p.r(U)p.r(C)}|RNA2{r(A)p.r(C)p.[lna](T)p.r(U)p.r(G)p.[lna](T)p.r(G)p.r(G)p.r(C)p.r(C)p.r(G)p.r(U)p.r(U)p.[lna](T)p.r(A)p.r(C)p.r(G)p.[lna](T)p.r(C)p.[lna](G)p.[lna](C)}$$$RNA1{StrandType:ss}|RNA2{StrandType:as}$” showed a target mRNA knockdown of 3.6%.

In the case of “RNA1{r(G)p.[hna](A)p.r(C)p.r(G)p.r(U)p.r(A)p.r(A)p.[hna](A)p.r(C)p.r(G)p.r(G)p.r(C)p.r(C)p.[hna](A)p.r(C)p.r(A)p.[hna](A)p.r(G)p.r(U)p.r(U)p.r(C)}|RNA2{r(A)p.r(C)p.r(U)p.r(U)p.r(G)p.r(U)p.r(G)p.r(G)p.r(C)p.r(C)p.r(G)p.r(U)p.r(U)p.r(U)p.r(A)p.r(C)p.r(G)p.r(U)p.[lna](C)p.[lna](G)p.r(C)}$$$RNA1{StrandType:ss}|RNA2{StrandType:as}$”, the target mRNA knockdown was 79.1%.

As for “RNA1{r(G)p.[hna](A)p.r(C)p.r(G)p.r(U)p.r(A)p.r(A)p.[hna](A)p.r(C)p.r(G)p.r(G)p.r(C)p.r(C)p.[hna](A)p.r(C)p.r(A)p.[hna](A)p.r(G)p.r(U)p.r(U)p.r(C)}|RNA2{r(A)p.r(C)p.r(U)p.r(U)p.r(G)p.r(U)p.r(G)p.r(G)p.r(C)p.r(C)p.r(G)p.r(U)p.r(U)p.r(U)p.r(A)p.r(C)p.r(G)p.r(U)p.r(C)p.r(G)p.r(C)}$$$RNA1{StrandType:ss}|RNA2{StrandType:as}$”, the target mRNA knockdown turned out to be 84.9%.

Substance “RNA1{r(G)p.m(C)p.r(A)p.r(A)p.r(G)p.r(U)p.r(G)p.r(G)p.r(C)p.r(A)p.r(A)p.r(G)p.r(A)p.r(G)p.r(G)p.r(A)p.r(U)p.m(U)p.r(A)p.r(T)p.r(T)}|RNA2{m(U)p.r(A)p.r(A)p.r(U)p.r(C)p.r(C)p.r(U)p.r(C)p.r(U)p.m(U)p.r(G)p.r(C)p.m(C)p.r(A)p.r(C)p.r(U)p.m(U)p.r(G)p.r(C)p.r(T)p.r(T)}$$$RNA1{StrandType:ss}|RNA2{StrandType:as}$” came in with a target mRNA knockdown of 68%.

Substance “RNA1{r(G)p.m(C)p.r(A)p.r(G)p.r(A)p.r(G)p.r(A)p.r(A)p.m(U)p.m(C)p.m(U)p.r(A)p.m(C)p.m(C)p.m(U)p.m(U)p.m(U)p.m(C)p.m(C)p.r(T)p.r(T)}|RNA2{r(G)p.r(G)p.r(A)p.r(A)p.r(A)p.r(G)p.r(G)p.m(U)p.r(A)p.r(G)p.r(A)p.m(U)p.m(U)p.m(C)p.m(U)p.m(C)p.m(U)p.r(G)p.m(C)p.r(T)p.r(T)}$$$RNA1{StrandType:ss}|RNA2{StrandType:as}$” had a target mRNA knockdown of 13%.

“RNA1{r(G)p.m(C)p.r(A)p.r(G)p.r(A)p.r(G)p.r(A)p.r(A)p.r(U)p.r(C)p.m(U)p.r(A)p.r(C)p.r(C)p.r(U)p.r(U)p.r(U)p.r(C)p.r(C)p.r(T)p.r(T)}|RNA2{r(G)p.r(G)p.r(A)p.r(A)p.r(A)p.r(G)p.r(G)p.m(U)p.r(A)p.r(G)p.r(A)p.r(U)p.r(U)p.r(C)p.r(U)p.r(C)p.m(U)p.r(G)p.r(C)p.r(T)p.r(T)}$$$RNA1{StrandType:ss}|RNA2{StrandType:as}$” yielded a target mRNA knockdown of 75%.

In the case of “RNA1{r(G)p.m(C)p.r(A)p.r(G)p.r(C)p.r(A)p.r(C)p.r(G)p.r(A)p.r(C)p.r(U)p.r(U)p.r(C)p.r(U)p.r(U)p.r(C)p.r(A)p.r(A)p.r(G)p.r(U)p.r(U)}|RNA2{r(C)p.m(U)p.r(U)p.r(G)p.r(A)p.r(A)p.r(G)p.r(A)p.r(A)p.r(G)p.r(U)p.r(C)p.r(G)p.r(U)p.r(G)p.r(C)p.r(U)p.r(G)p.r(C)p.r(U)p.r(U)}$$$RNA1{StrandType:ss}|RNA2{StrandType:as}$”, the target mRNA knockdown amounted to 62.7%.

“RNA1{r(G)p.m(C)p.r(A)p.r(G)p.r(C)p.r(A)p.r(C)p.r(G)p.r(A)p.r(C)p.r(U)p.r(U)p.r(C)p.r(U)p.r(U)p.r(C)p.r(A)p.r(A)p.r(G)p.r(U)p.r(U)}|RNA2{r(C)p.r(U)p.r(U)p.r(G)p.r(A)p.r(A)p.r(G)p.r(A)p.r(A)p.r(G)p.r(U)p.r(C)p.r(G)p.r(U)p.r(G)p.r(C)p.r(U)p.r(G)p.r(C)p.r(U)p.r(U)}$$$RNA1{StrandType:ss}|RNA2{StrandType:as}$”: the target mRNA knockdown was 71.7%.

As to “RNA1{r(G)p.m(C)p.r(A)p.r(G)p.r(C)p.r(A)p.r(C)p.r(G)p.r(A)p.r(C)p.r(U)p.r(U)p.r(C)p.r(U)p.r(U)p.r(C)p.r(A)p.r(A)p.r(G)p.r(U)p.r(U)}|RNA2{r(U)p.[fl2r](U)p.r(C)p.r(G)p.r(U)p.r(C)p.r(G)p.r(U)p.r(G)p.r(C)p.r(U)p.r(G)p.r(A)p.r(A)p.r(G)p.r(A)p.r(A)p.r(G)p.r(U)p.r(U)p.r(C)}$$$RNA1{StrandType:ss}|RNA2{StrandType:as}$”, the target mRNA knockdown came to 77.2%.
